Starred links: 1 amine or outer side, 2 acyl side, 3 side chain; linkers in the order of their positions; H or OH if unused. Positions of bridges follow the written chain, without caps; N, C: chain ends. Non-standard residues stand in square brackets, D forms with d. Residues, ends and D or L forms follow the SMILES beside them. Trp(7-aza) = N[C@@H](Cc1c[nH]c2ncccc12)C(=O)O; mXylylene = c1cc(C[*:1])cc(C[*:2])c1; dChg = N[C@@H](C(=O)O)C1CCCCC1; dPhg = N[C@@H](C(=O)O)c1ccccc1; Chg = N[C@H](C(=O)O)C1CCCCC1; Phg = N[C@H](C(=O)O)c1ccccc1; Tle = CC(C)(C)[C@H](N)C(=O)O; NMeS = CN[C@@H](CO)C(=O)O; hCys = N[C@@H](CCS)C(=O)O; Pra = C#CC[C@H](N)C(=O)O; Nva = CCC[C@H](N)C(=O)O; Sar = CNCC(=O)O

From patent US10208089B2, “Modulation of complement activity” (priority 2014, dated 2019) come the findings set out here.

The target in the first test is C5 (Homo sapiens, UniProt P01031). Description: Human hemolysis assay (RBC lysis assay using complete human sera). It is filed as cell-based. Details: with complete human sera (Complement Technology, Tyler Tex.) and polypeptides; tissue Complement Technology, Tyler Tex; host or cells: complete human serum. Particulars: 7-azatryptophan variant polypeptides of R3008; inhibition of red blood cell lysis.
Sequence of C5 (P01031 19-1676): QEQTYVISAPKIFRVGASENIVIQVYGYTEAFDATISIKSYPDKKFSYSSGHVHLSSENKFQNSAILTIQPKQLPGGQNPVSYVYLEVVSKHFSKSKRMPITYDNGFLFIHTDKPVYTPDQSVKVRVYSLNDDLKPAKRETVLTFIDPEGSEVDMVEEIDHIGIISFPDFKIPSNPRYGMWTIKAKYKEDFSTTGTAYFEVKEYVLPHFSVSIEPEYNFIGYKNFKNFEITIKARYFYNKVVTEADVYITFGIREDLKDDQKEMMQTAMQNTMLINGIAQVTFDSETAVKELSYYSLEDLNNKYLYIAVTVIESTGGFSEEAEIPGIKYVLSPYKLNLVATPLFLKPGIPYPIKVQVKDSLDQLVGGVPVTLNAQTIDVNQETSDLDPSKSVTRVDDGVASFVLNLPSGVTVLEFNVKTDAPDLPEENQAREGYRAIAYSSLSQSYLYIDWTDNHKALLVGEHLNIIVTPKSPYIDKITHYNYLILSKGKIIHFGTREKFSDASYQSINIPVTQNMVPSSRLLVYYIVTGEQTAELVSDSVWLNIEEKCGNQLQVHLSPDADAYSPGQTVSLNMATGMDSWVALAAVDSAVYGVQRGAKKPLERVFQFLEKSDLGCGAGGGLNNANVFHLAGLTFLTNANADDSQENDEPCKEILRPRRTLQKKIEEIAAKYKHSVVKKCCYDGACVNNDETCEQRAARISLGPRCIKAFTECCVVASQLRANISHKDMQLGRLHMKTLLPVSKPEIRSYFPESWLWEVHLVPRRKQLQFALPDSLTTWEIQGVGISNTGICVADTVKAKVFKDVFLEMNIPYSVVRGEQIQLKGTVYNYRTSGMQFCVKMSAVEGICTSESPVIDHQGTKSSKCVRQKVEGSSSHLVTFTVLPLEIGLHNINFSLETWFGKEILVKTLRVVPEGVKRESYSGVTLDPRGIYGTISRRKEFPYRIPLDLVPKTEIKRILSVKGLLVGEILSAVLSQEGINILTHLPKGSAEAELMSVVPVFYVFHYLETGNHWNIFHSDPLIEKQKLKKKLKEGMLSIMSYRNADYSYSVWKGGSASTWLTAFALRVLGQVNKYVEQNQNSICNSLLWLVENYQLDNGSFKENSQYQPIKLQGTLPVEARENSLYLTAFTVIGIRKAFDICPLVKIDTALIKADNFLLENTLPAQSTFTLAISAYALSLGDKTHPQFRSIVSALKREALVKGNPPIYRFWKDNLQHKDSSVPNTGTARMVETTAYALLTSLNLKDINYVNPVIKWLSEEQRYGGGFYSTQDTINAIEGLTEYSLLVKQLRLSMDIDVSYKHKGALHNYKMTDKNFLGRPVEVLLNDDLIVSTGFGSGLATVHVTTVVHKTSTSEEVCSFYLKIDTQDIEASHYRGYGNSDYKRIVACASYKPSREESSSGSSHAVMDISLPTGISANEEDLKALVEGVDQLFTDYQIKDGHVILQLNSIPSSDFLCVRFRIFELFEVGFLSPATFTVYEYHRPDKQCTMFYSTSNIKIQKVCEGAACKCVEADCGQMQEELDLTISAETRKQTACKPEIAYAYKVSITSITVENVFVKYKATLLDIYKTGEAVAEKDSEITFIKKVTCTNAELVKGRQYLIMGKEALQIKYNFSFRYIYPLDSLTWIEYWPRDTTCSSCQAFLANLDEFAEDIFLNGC
`CCC[C@H](NC(=O)[C@@H]1CSCc2cccc(c2)CSC[C@H](NC(=O)[C@H](CCC)NC(C)=O)C(=O)N[C@@H](c2ccccc2)C(=O)N[C@@H]([C@@H](C)O)C(=O)N[C@@H](C)C(=O)N[C@@H](CCC(=O)O)C(=O)N[C@@H](Cc2ccc(O)cc2)C(=O)N(C)[C@@H](CO)C(=O)N[C@@H](Cc2c[nH]cn2)C(=O)N1)C(N)=O` [Compound R3034, [mXylyl(2,10)]Ac-Nvl-C-Phg-T-A-E-Y-(N-Me)S-H-C-Nvl-NH2] (Ac-[Nva]C[Phg]TAEY[NMeS]HC[Nva]-NH2; linker 2-10 via mXylylene) came in with an IC50 of over 50 µM.
In turn, `CCC[C@H](NC(=O)[C@@H]1CSCc2cccc(c2)CSC[C@H](NC(=O)[C@H](CCC)NC(C)=O)C(=O)N[C@@H](c2ccccc2)C(=O)N[C@@H]([C@@H](C)O)C(=O)N[C@@H](Cc2ccccc2)C(=O)N[C@@H](CCC(=O)O)C(=O)N[C@@H](Cc2ccc(O)cc2)C(=O)N(C)[C@@H](CO)C(=O)N[C@@H](C)C(=O)N1)C(N)=O` [Compound R3092, [mXylyl(2,10)]Ac-Nvl-C-Phg-T-F-E-Y-(N-Me)S-A-C-Nvl-NH2] (Ac-[Nva]C[Phg]TFEY[NMeS]AC[Nva]-NH2; linker 2-10 via mXylylene) displayed an IC50 of over 50 µM.

Still in this test, the particulars now being: inhibition of lysis of antibody-sensitized sheep erythrocytes, complete human sera.
For the compound `CCC[C@H](NC(=O)[C@@H](NC(=O)[C@@H]1CCCN1C(=O)[C@H](Cc1ccc(O)cc1)NC(=O)[C@H](CCC(=O)O)NC(=O)[C@H](Cc1c[nH]c2ccccc12)NC(=O)[C@H](Cc1ccc(O)cc1)NC(=O)[C@@H](NC(=O)[C@H](CC(=O)O)NC(=O)[C@@H]1CSCc2cccc(c2)CSC[C@H](NC(C)=O)C(=O)N[C@@H](C)C(=O)N[C@@H](CCC(=O)O)C(=O)N[C@@H](CCCNC(=N)N)C(=O)N[C@@H](Cc2ccccc2)C(=O)N1)C(C)(C)C)c1ccccc1)C(N)=O` [Compound R3148, [mXylyl(1,6)]Ac-C-A-E-R-F-C-D-Tbg-Y-W-E-Y-P-Phg-Nvl-NH2] (Ac-CAERFCD[Tle]YWEYP[Phg][Nva]-NH2; linker 1-6 via mXylylene), the IC50 turned out to be 0.0085 µM.
Still for that read-out and setting: to `CCC[C@H](NC(=O)[C@H](NC(=O)[C@@H]1CCCN1C(=O)[C@H](Cc1ccc(O)cc1)NC(=O)[C@H](CCC(=O)O)NC(=O)[C@H](Cc1c[nH]c2ncccc12)NC(=O)[C@H](Cc1ccc(O)cc1)NC(=O)[C@@H](NC(=O)[C@H](C)NC(=O)[C@@H]1CSCc2cccc(c2)CSC[C@H](NC(C)=O)C(=O)N[C@@H](C(C)C)C(=O)N[C@@H](CCC(=O)O)C(=O)N[C@@H](CCCNC(=N)N)C(=O)N[C@@H](Cc2ccccc2)C(=O)N1)C(C)(C)C)c1ccccc1)C(N)=O` [Compound R3158, [mXylyl(1,6)]Ac-C-V-E-R-F-C-A-Tbg-Y-azaTrp-E-Y-P-(D-Phg)-Nvl-NH2] (Ac-CVERFCA[Tle]Y[Trp(7-aza)]EYP[dPhg][Nva]-NH2; linker 1-6 via mXylylene) belongs 0.327 µM; to `CCC[C@H](NC(=O)[C@H](NC(=O)[C@@H]1CCCN1C(=O)[C@H](Cc1ccc(O)cc1)NC(=O)[C@H](CCC(=O)O)NC(=O)[C@H](Cc1c[nH]c2ncccc12)NC(=O)[C@H](Cc1ccc(O)cc1)NC(=O)[C@@H](NC(=O)[C@H](CC(=O)O)NC(=O)[C@@H]1CSCc2cccc(c2)CSC[C@H](NC(C)=O)C(=O)N[C@@H](C(C)C)C(=O)N[C@@H](C)C(=O)N[C@@H](CCCNC(=N)N)C(=O)N[C@@H](Cc2ccccc2)C(=O)N1)C(C)(C)C)c1ccccc1)C(N)=O` [Compound R3151, [mXylyl(1,6)]Ac-C-V-A-R-F-C-D-Tbg-Y-azaTrp-E-Y-P-(D-Phg)-Nvl-NH2] (Ac-CVARFCD[Tle]Y[Trp(7-aza)]EYP[dPhg][Nva]-NH2; linker 1-6 via mXylylene), 0.165 µM; to `CCC[C@H](NC(=O)[C@@H]1CSCc2cccc(c2)CSCC[C@H](NC(=O)[C@H](CCC)NC(C)=O)C(=O)N[C@@H](c2ccccc2)C(=O)N[C@@H]([C@@H](C)O)C(=O)N[C@@H](Cc2c[nH]c3ncccc23)C(=O)N[C@@H](CCC(=O)O)C(=O)N[C@@H](Cc2ccc(O)cc2)C(=O)N(C)[C@@H](CO)C(=O)N[C@@H](Cc2c[nH]cn2)C(=O)N1)C(N)=O` [Compound R3103, [mXylyl(2,10)]Ac-Nvl-homoC-Phg-T-azaTrp-E-Y-(N-Me)S-H-C-Nvl-NH2] (Ac-[Nva][hCys][Phg]T[Trp(7-aza)]EY[NMeS]HC[Nva]-NH2; linker 2-10 via mXylylene), over 25 µM.
Still for that read-out and setting: in the case of `CCC[C@H](NC(C)=O)C(=O)N[C@@H](CCC)C(=O)N[C@@H](Cc1ccc(O)cc1)C(=O)N[C@@H](CCC(=O)O)C(=O)N[C@@H](CC(N)=O)C(=O)N[C@H](C(=O)N[C@@H](Cc1ccc(O)cc1)C(=O)N[C@@H](Cc1c[nH]c2ncccc12)C(=O)N[C@@H](CCC(=O)O)C(=O)N[C@@H](Cc1ccc(O)cc1)C(=O)N1CCC[C@H]1C(=O)N[C@H](C(=O)N[C@@H](CCC)C(=O)N[C@@H](CCCCN)C(N)=O)C1CCCCC1)C(C)(C)C` [Compound R3072, Ac-Nvl-Nvl-Y-E-N-Tbg-Y-azaTrp-E-Y-P-Chg-Nvl-K-NH2] (Ac-[Nva][Nva]YEN[Tle]Y[Trp(7-aza)]EYP[Chg][Nva]K-NH2) it was 0.0269 µM; in that of `CCC[C@H](NC(=O)[C@@H](NC(=O)[C@@H]1CCCN1C(=O)[C@H](Cc1ccc(O)cc1)NC(=O)[C@H](CCC(=O)O)NC(=O)[C@H](Cc1c[nH]c2ncccc12)NC(=O)[C@H](Cc1ccc(O)cc1)NC(=O)[C@@H](NC(=O)[C@H](CC(=O)O)NC(=O)[C@@H]1CSCc2cccc(c2)CSC[C@H](NC(C)=O)C(=O)N[C@@H](C(C)C)C(=O)N[C@@H](CCC(=O)O)C(=O)N[C@@H](CCCNC(=N)N)C(=O)N[C@@H](C)C(=O)N1)C(C)(C)C)c1ccccc1)C(N)=O` [Compound R3155, [mXylyl(1,6)]Ac-C-V-E-R-A-C-D-Tbg-Y-azaTrp-E-Y-P-Phg-Nvl-NH2] (Ac-CVERACD[Tle]Y[Trp(7-aza)]EYP[Phg][Nva]-NH2; linker 1-6 via mXylylene), 1.53 µM; in that of `C#CC[C@H](NC(=O)[C@H](Cc1ccccc1)NC(=O)[C@H](CCC(=O)O)NC(=O)[C@H](Cc1c[nH]c2ccccc12)NC(=O)[C@H](Cc1ccc(O)cc1)NC(=O)[C@@H](NC(=O)[C@H](CC(=O)O)NC(=O)[C@@H]1CSCc2cccc(c2)CSC[C@H](NC(C)=O)C(=O)N[C@@H](C(C)C)C(=O)N[C@@H](CCC(=O)O)C(=O)N[C@@H](CCCNC(=N)N)C(=O)N[C@@H](Cc2ccccc2)C(=O)N1)C(C)C)C(N)=O` [Compound R3147, [mXylyl(1,6)]Ac-C-V-E-R-F-C-D-V-Y-W-E-F-Propargyl-Gly-NH2] (Ac-CVERFCDVYWEF[Pra]-NH2; linker 1-6 via mXylylene), 0.138 µM.
`CCC[C@H](NC(C)=O)C(=O)N[C@@H](CS)C(=O)N[C@@H](Cc1ccc(O)cc1)C(=O)N[C@@H](Cc1c[nH]c2ncccc12)C(=O)N(C)CC(=O)N[C@H](C(=O)N[C@@H](CCC)C(=O)N[C@@H](Cc1c[nH]c2ncccc12)C(=O)N[C@@H](CCC(=O)O)C(=O)N[C@@H](Cc1ccc(O)cc1)C(=O)N1CCC[C@H]1C(=O)N[C@H](C(=O)N1CCC[C@H]1C(N)=O)c1ccccc1)C(C)(C)C` [Compound R3005, Ac-Nvl-C-Y-azaTrp-(N-Me)G-Tbg-Nvl-azaTrp-E-Y-P-Phg-P-NH2] (Ac-[Nva]CY[Trp(7-aza)][Sar][Tle][Nva][Trp(7-aza)]EYP[Phg]P-NH2): the IC50 was 0.0667 µM.
For `CCC[C@H](NC(=O)[C@@H]1CSCc2cccc(c2)CSC[C@H](NC(=O)[C@H](CCC)NC(C)=O)C(=O)N[C@@H](c2ccccc2)C(=O)N[C@@H]([C@@H](C)O)C(=O)N[C@@H](C)C(=O)N[C@@H](CCC(=O)O)C(=O)N[C@@H](Cc2ccc(O)cc2)C(=O)N(C)[C@@H](CO)C(=O)N[C@@H](Cc2c[nH]cn2)C(=O)N1)C(N)=O` [Compound R3034, [mXylyl(2,10)]Ac-Nvl-C-Phg-T-A-E-Y-(N-Me)S-H-C-Nvl-NH2] (Ac-[Nva]C[Phg]TAEY[NMeS]HC[Nva]-NH2; linker 2-10 via mXylylene), the IC50 was over 50 µM.
On the same count and under the same terms, in the case of `CCC[C@H](NC(=O)[C@@H]1CCCN1C(=O)[C@H](CCC)NC(=O)[C@H](CS)NC(=O)[C@H](Cc1c[nH]cn1)NC(=O)[C@H](CO)N(C)C(=O)[C@H](Cc1ccc(O)cc1)NC(=O)[C@H](CCC(=O)O)NC(=O)[C@H](Cc1c[nH]c2ncccc12)NC(=O)[C@@H](NC(=O)[C@@H](NC(=O)[C@H](CS)NC(=O)[C@H](CCC)NC(C)=O)c1ccccc1)[C@@H](C)O)C(N)=O` [Compound R3022, Ac-Nvl-C-Phg-T-azaTrp-E-Y-(N-Me)S-H-C-Nvl-P-Nvl-NH2] (Ac-[Nva]C[Phg]T[Trp(7-aza)]EY[NMeS]HC[Nva]P[Nva]-NH2) it was over 10.2 µM.
On the same count and under the same terms, in the case of `CCC[C@H](NC(=O)[C@@H]1CSCc2cccc(c2)CSC[C@H](NC(=O)[C@H](CCC)NC(C)=O)C(=O)N[C@@H](c2ccccc2)C(=O)N[C@@H]([C@@H](C)O)C(=O)N[C@@H](Cc2ccccc2)C(=O)N[C@@H](CCC(=O)O)C(=O)N[C@@H](Cc2ccc(O)cc2)C(=O)N(C)[C@@H](CO)C(=O)N[C@@H](C)C(=O)N1)C(N)=O` [Compound R3092, [mXylyl(2,10)]Ac-Nvl-C-Phg-T-F-E-Y-(N-Me)S-A-C-Nvl-NH2] (Ac-[Nva]C[Phg]TFEY[NMeS]AC[Nva]-NH2; linker 2-10 via mXylylene) it was over 50 µM; in that of `CCC[C@H](NC(=O)[C@@H]1CSCc2cccc(c2)CSC[C@H](NC(=O)[C@H](CCC)NC(C)=O)C(=O)N[C@@H](c2ccccc2)C(=O)N[C@@H]([C@@H](C)O)C(=O)N[C@@H](Cc2c[nH]c3ncccc23)C(=O)N[C@@H](CC(=O)O)C(=O)N[C@@H](Cc2ccc(O)cc2)C(=O)N(C)[C@@H](CO)C(=O)N[C@@H](C)C(=O)N1)C(N)=O` [Compound R3097, [mXylyl(2,10)]Ac-Nvl-C-Phg-T-azaTrp-D-Y-(N-Me)S-A-C-Nvl-NH2] (Ac-[Nva]C[Phg]T[Trp(7-aza)]DY[NMeS]AC[Nva]-NH2; linker 2-10 via mXylylene), over 100 µM; in that of `CCC[C@H](NC(=O)[C@@H]1CSCc2cccc(c2)CSC[C@H](NC(=O)[C@H](CCC)NC(C)=O)C(=O)N[C@H](C2CCCCC2)C(=O)N[C@@H]([C@@H](C)O)C(=O)N[C@@H](Cc2c[nH]c3ncccc23)C(=O)N[C@@H](CCC(=O)O)C(=O)N[C@@H](Cc2ccc(O)cc2)C(=O)N(C)[C@@H](CO)C(=O)N[C@@H](C)C(=O)N1)C(N)=O` [Compound R3093, [mXylyl(2,10)]Ac-Nvl-C-(D-Chg)-T-azaTrp-E-Y-(N-Me)S-A-C-Nvl-NH2] (Ac-[Nva]C[dChg]T[Trp(7-aza)]EY[NMeS]AC[Nva]-NH2; linker 2-10 via mXylylene), over 100 µM.
In the case of `CCC[C@H](NC(=O)[C@@H]1CSCc2cccc(c2)CSC[C@H](NC(=O)[C@H](CCC)NC(C)=O)C(=O)N[C@@H](c2ccccc2)C(=O)N[C@@H]([C@@H](C)O)C(=O)N[C@@H](Cc2c[nH]c3ncccc23)C(=O)N[C@@H](CCC(=O)O)C(=O)N[C@@H](Cc2ccc(O)cc2)C(=O)N(C)[C@@H](CO)C(=O)N[C@H](C)C(=O)N1)C(N)=O` [Compound R3135, [mXylyl(2,10)]Ac-Nvl-C-Phg-T-azaTrp-E-Y-(N-Me)S-(D-Ala)-C-Nvl-NH2] (Ac-[Nva]C[Phg]T[Trp(7-aza)]EY[NMeS][dA]C[Nva]-NH2; linker 2-10 via mXylylene), the IC50 was over 25 µM.
